Data from patent publication US8338568B2, “Chimeric PCSK9 proteins, cells comprising same, and assays using same” (Adaerata, Limited Partnership, priority 2006, dated 2012).
Each block holds one molecule with its values, some of them ahead of it.

Legend:
Furin = target: T1, Furin (Homo sapiens, UniProt P09958); assay: Cleavability of PCSK9 mutants by Furin in HEK293 cells (pulse-labelling, V5 immunoprecipitation); type: cell-based; conditions: for processing by co-expressed Furin: co-transfection with Furin, FIG. 8; for processing at Arg218 by endogenous Furin: 5 h pulse-labelling, FIG. 9
T1 construct: endogenous in cells; host or cells: HEK293
Procedure: Twenty four hours following the co-transfection of the PCSK9 natural mutants and each PC or with an empty vector control (pIRES). The cells were labeled with [^35S] [Met+Cys] for 5 h (P5h) and the cell lysates (Cells) and media analyzed as in FIG. 7. The stars point to lanes where either processing occurred (Furin and PC5A) or was inhibited by the presence of the mutation (R^218S with furin). Cleavage sites GTRFHS^218↓QA (SEQ ID NO: 17); GTRLHR^218↓QA (SEQ ID NO: 18);
[Met+Cys] as described in FIG. 7. The star emphasizes the effectiveness of the RRRR218EL (SEQ ID NO: […]) mutant to allow the complete processing of PCSK9 into the PCSK9-ΔN218 form by endogenous Furin. PCSK9 amino acid sequence in the vicinity of position 218 RFHR218QA (SEQ ID NO: 4) (WT); RFHR218EA (SEQ ID NO: 6) (Q219E); RFHR218EL (SEQ ID NO: 7) (QA219,220EL); RRRR218EL (SEQ ID NO: 5);
Was next tested the hypothesis that cleavage at Arg218 is performed by one or more basic amino acid PCs. Accordingly, wild type PCSK9 was co-expressed with all the convertases as well as with β-secretase BACE1 in HEK293 cells. Cells transiently transfected with vectors expressing hPCSK9-V5 and/or the different convertases (as indicated at the top of lanes) were pulse-labeled with ^35S-(Met+Cys) for 4 h and cell extracts (Cells) and media (Media) were immunoprecipitated with a V5 antibody and the precipitates were resolved by SDS/PAGE. […] The N-terminally truncated N2 product is thus referred to as PCSK9-ΔN218 (SEQ ID NO: 32) (PCSK9 lacking the first 218 amino acids; FIG. 5). […] The R218S mutation abrogates the Furin/PC5A cleavage at the sequence RFHR218.
Based on the crystal structure of Furin (Henrich et al., 2003) and the analysis of its many substrates (Seidah and Chretien, 1999), the best substrates of Furin would have the motif RX(R/K)R↓(E/D)L (SEQ ID NO: 115). This led the applicants to produce mutants of PCSK9 that should greatly enhance the ability of Furin to process this molecule. […] Notice the almost absence of prosegment co-immunoprecipitating with the PCSK9-ΔN218 form produced (FIG. 9), which would be predicted since such cleavage would remove the PCSK9 segment 153-218 (SEQ ID NO: 31), which contains the active site Asp^186.

LDLR [1] = assay: Western blot of endogenous LDLR level in HuH7 cells transiently transfected with PCSK9 constructs; type: cell-based, human; conditions: compared to pIRES empty vector, FIG. 10
Text: Cells expressed either full length PCSK9 (FL-PCSK9), namely wild type sequence (WT), mutated R218S, RRRREL (SEQ ID NO: 5) or active site H226A; a truncated PCSK9 construct with the Cys/His rich domain (signal peptide fused to amino acid 455-692 of PCSK9 and ending with a V5 tag) (CHRD) or the empty vector control (pIRES-2). The levels of β-actin was used as control, as well as the level of PCSK9 intracellular proteins produced (detected by a V5-mAb);
Accordingly, the activity on the degradation of LDLR of wild type PCSK9, its R218S mutant, the RRRR218EL (SEQ ID NO: 5) variant, the active site mutant H226A and the Cys/His-rich domain of PCSK9 (aa 454-692 CHRD) was analyzed by Western blots in HuH7 cells (Benjannet et al., 2004) (FIG. 10).

VLDLR [2] = assay: Transgenic mice overexpressing PCSK9-V5 in hepatocytes: VLDLR in skeletal muscle, circulating LDL-cholesterol; type: in vivo, mouse
Procedure: The transgenic protein was tagged with a V5 at its C-terminus to differentiate it from the endogenous one. […] This is the first evidence that circulating PCSK9 can enhance the degradation of VLDLR in vivo and at distant sites away from those of its synthesis.
Immunohistochemistry of VLDLR (red) in skeletal mouse muscles of control Pcsk9+/+, Pcsk9−/− (Pcsk9 knockout) and transgenic mice (Tg-hPcsk9-V5). The nuclei were stained using TO-PRO-3 (blue; invitrogen). scale: […]; and
A transgenic mice specifically overexpressing PCSK9 in hepatocytes was generated. The transgene was under the control of the ApoE promoter and enhancer regulation. […] The transgenic protein was tagged with a V5 at its c-terminus to differentiate it from the endogenous one. […] Immunofluorescence and Confocal Microscopy analyses of the skeletal mouse muscles were performed using a rabbit polyclonal Ab:VLDLR (a74; 1:200). Immunofluorescence analyses were performed with a Zeiss™ LSM-510 confocal microscope. Confocal immunofluorescence microscopy was performed with a Nikon Eclipse™ TE2000-U laser-scanning microscope with 408, 488, and 543-nm laser lines. Images were processed with Adobe Photoshop™ CS2, version 9.0 (Adobe Systems). […] This is the first evidence that circulating PCSK9 can enhance the degradation of VLDLR in vivo. The decrease level of VLDLR in the transgenic mice overexpressing PCSK9 in the liver was also confirm by immunodetection of PCSK9 in extracts of skeletal muscle (see FIG. 21).

LDLR [3] = assay: Western blot of LDLR level in HEK293 cells co-transfected with LDLR and PCSK9 or PCSK9-TM-CT chimera; type: cell-based, human; conditions: HEK293 cells co-transfected with LDLR; compared to wild type PCSK9; FIG. 4
Procedure: (§1) Note that NH4Cl allows the rescue from degradation of an intermediate immunoreactive ˜105 kDa form of LDLR that is likely found in endosomes. The pIRES lanes represent the empty vector pIRES-2 either alone or co-transfected with LDLR (as indicated at the bottom of the panel) as controls;
as §1, with “HEK293 cells were transiently transfected with different PCSK9-chimera constructions (Benjannet et al., 2004). […] Cells were either treated (+) or not (−) with 5 mM NH4Cl for 24 h. Note” for “Note”, “controls.” for “controls;”

LDLR [4] = assay: Western blot of overexpressed LDLR in CHOK1 cells co-transfected with PCSK9 constructs; type: cell-based; conditions: overexpressed receptor, transient co-transfection; FIG. 13
Text: (§2) The triangle indicates the position in the gel of respectively ApoER2 (first panel), VLDLR (second panel) and LDLR (third panel). […] The PCSK9 Y38F is a mutant where the Tyr-sulfation of the prosegment is eliminated. The intracellular levels of PCSK9 (detected by a specific in-house polyclonal antibody made in rabbits against human PCSK9) are shown in the corresponding cell lysates in the lower panels;

VLDLR [5] = assay: Western blot of overexpressed VLDLR in CHOK1 cells co-transfected with PCSK9 constructs; type: cell-based; conditions: overexpressed receptor, transient co-transfection; FIG. 13
Text: as §2

ApoER2 = assay: Western blot of overexpressed ApoER2 in cells co-transfected with PCSK9 constructs; type: cell-based; conditions: for degradation of ApoER2: overexpressed receptor, transient co-transfection, FIGS. 13 and 14
Text: as §2
The intracellular levels of PCSK9 (detected by a specific in house antibody against human PCSK9) are shown in the bottom panels;

basic aa-specific PCs = assay: Inhibition of PC processing of overexpressed human PCSK9 in HEK293 cells (pulse-labelling, V5 immunoprecipitation); type: cell-based; conditions: co-expression with PCSK9 in HEK293 cells; FIG. 7
Procedure: Twenty four hours following the co-transfection of PCSK9 with a PC or with an empty vector control (the pIRES-2 vector from Invitrogen), the cells were labeled with [^35S] [Met+Cys] for 4 h (P4h). The cell lysates (Cells) and media were immunoprecipitated with a V5-mAb and the immunoprecipitates resolved by SDS-PAGE, as described (Seidah et al., 2003). sFurin represents the soluble form of furin lacking the transmembrane-cytosolic tail (Decroly et al., 1996). The stars point to lanes where either processing occurred (with Furin and PC5A) or was inhibited (α1-PDX). From now on, N2 is defined herein as the N-terminal 218 amino acid truncated PCSK9 product (PCSK9-ΔN218). The pIRES lanes represent the empty vector pIRES-2 either alone or co-transfected with PCSK9 (as indicated at the bottom of the panel) as controls;
Was next tested the hypothesis that cleavage at Arg218 is performed by one or more basic amino acid PCs. Accordingly, wild type PCSK9 was co-expressed with all the convertases as well as with β-secretase BACE1 in HEK293 cells. Cells transiently transfected with vectors expressing hPCSK9-V5 and/or the different convertases (as indicated at the top of lanes) were pulse-labeled with ^35S-(Met+Cys) for 4 h and cell extracts (Cells) and media (Media) were immunoprecipitated with a V5 antibody and the precipitates were resolved by SDS/PAGE. […]

T1 sequence (P09958 108-794): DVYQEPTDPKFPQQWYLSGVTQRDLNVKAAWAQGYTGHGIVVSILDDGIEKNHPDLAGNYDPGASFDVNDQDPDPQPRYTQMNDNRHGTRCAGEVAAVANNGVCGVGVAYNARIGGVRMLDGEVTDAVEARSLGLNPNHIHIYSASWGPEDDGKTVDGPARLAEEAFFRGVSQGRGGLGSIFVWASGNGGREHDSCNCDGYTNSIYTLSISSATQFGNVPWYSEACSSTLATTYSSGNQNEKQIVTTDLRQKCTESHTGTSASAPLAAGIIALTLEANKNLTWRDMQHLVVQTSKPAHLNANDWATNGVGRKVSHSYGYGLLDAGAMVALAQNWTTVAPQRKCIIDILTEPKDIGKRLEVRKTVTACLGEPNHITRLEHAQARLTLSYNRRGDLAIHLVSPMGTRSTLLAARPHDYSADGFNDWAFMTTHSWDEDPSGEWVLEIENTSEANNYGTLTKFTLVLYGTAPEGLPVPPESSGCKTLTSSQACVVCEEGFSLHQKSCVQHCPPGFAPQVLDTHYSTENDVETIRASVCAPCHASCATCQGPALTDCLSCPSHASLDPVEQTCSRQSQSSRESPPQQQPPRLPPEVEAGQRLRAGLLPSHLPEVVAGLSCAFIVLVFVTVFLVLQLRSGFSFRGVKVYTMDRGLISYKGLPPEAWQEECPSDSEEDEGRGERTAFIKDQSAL

processing by co-expressed Furin (Furin): cleaves to a lesser extent
Molecule: F216L: natural PCSK9 mutant Phe216-to-Leu, hypercholesterolemia-associated

Molecule: H226A: active site mutant of PCSK9, an inactive enzyme form that remains as zymogen in the ER [reference compound]
activity in enhancing the degradation of the LDLR (LDLR [1]): inactive

Molecule: PCSK9-V5: transgenic PCSK9 tagged with V5 at its C-terminus, overexpressed in mouse hepatocytes
circulating LDL-Cholesterol (VLDLR [2]; transgenic mice overexpressing PCSK9 in hepatocytes): quite elevated
level of VLDLR in skeletal muscle (VLDLR [2]; transgenic mice versus control littermates, immunofluorescence, FIG. 21): dramatically decreased
decrease of VLDLR level in muscle (VLDLR [2]; transgenic mice versus non-transgenic control littermates): at least 3 fold

Molecule: PCSK9-[TM-CT of ACE2]: chimera of full-length human PCSK9 (1-692) fused to the transmembrane and cytosolic domains of ACE2, SEQ ID NO: 27
degradation of LDLR (LDLR [3]): much more effective than the wild type (WT) PCSK9

Molecule: PCSK9-[TM-CT of LDLR]: chimera of full-length human PCSK9 (1-692) indirectly fused to the transmembrane and cytosolic domains of LDLR, SEQ ID NO: 20
degradation of LDLR (LDLR [3]): much more effective than the wild type (WT) PCSK9

Molecule: PCSK9-[TM-CT of Lamp1]: chimera of full-length human PCSK9 (1-692) fused to the transmembrane and cytosolic domains of Lamp1, SEQ ID NO: 24
degradation of LDLR (LDLR [3]): more powerful chimera to enhance the degradation of the LDLR
degradation of LDLR (LDLR [4]): highest efficacy of degradation
degradation of VLDLR (VLDLR [5]): highest efficacy of degradation
level of ApoER2 (ApoER2; CHOK1, Neuro2A, HuH7 and HEKL293 cells, FIG. 14): significantly decreased the level of ApoER2 in all cells tested
degradation of ApoER2 (ApoER2): highest efficacy of degradation

Molecule: PCSK9-ΔN218: C-terminal fragment of the furin/PC5-cleaved PCSK9 (219-692), SEQ ID NO: 32
activity in enhancing the degradation of the LDLR (LDLR [1]): inactive form of PCSK9

processing by co-expressed Furin (Furin): can no longer process
Molecule: R218S: natural PCSK9 mutant Arg218-to-Ser, hypercholesterolemia-associated, Furin/PC5A-resistant
activity in enhancing the degradation of the LDLR (LDLR [1]): active in enhancing the degradation of the LDLR

processing at Arg218 by endogenous Furin (Furin): intermediate Furin-cleavability
Molecule: RFHR218↓EA: PCSK9 mutant with motif RFHR218EA (SEQ ID NO: 6)

processing at Arg218 by endogenous Furin (Furin): intermediate Furin-cleavability
Molecule: RFHR218↓EL: PCSK9 mutant with motif RFHR218EL (SEQ ID NO: 7)

processing at Arg218 by endogenous Furin (Furin): completely process
Molecule: RRRR^218EL: PCSK9 variant with wild type RFHR218QA replaced by optimal Furin-recognition sequence RRRR218EL (SEQ ID NO: 5)
activity in enhancing the degradation of the LDLR (LDLR [1]): inactive

Molecule: wild type PCSK9: human full-length PCSK9 (1-692), SEQ ID NO: 21
activity in enhancing the degradation of the LDLR (LDLR [1]): active in enhancing the degradation of the LDLR
degradation of VLDLR (VLDLR [5]): degraded
degradation of ApoER2 (ApoER2): degraded

Molecule: α1-PDX: modified serpin which inhibits most of the basic aa-specific PCs
inhibition of processing of PCSK9 into PCSK9-ΔN218 (basic aa-specific PCs): completely inhibits such processing into PCSK9-ΔN218

B1: CHRD: truncated PCSK9 construct: signal peptide fused to the Cys/His rich domain (amino acid 455-692) with V5 tag (protein)
chain: LFCRTVWSAHSGPTRMATAVARCAPDEELLSCSSFSRSGKRRGERMEAQGGKLVCRAHNAFGGEGVYAIARCCLLPQANCSVHTAPPAEASMGTRVHCHQQGHVLTGCSSHWEVEDLGTHKPPVLRPRGQPNQCVGHREASIHASCCHAPGLECKVKEHGIPAPQEQVTVACEEGWTLTGCSALPGTSHVLGAYAVDNTCVVRSRDVSTTGSTSEGAVTAVAICCRSRHLAQASQELQ
modifications: left off: small tags and cut ends
notes: truncated PCSK9 construct: signal peptide fused to the Cys/His rich domain (amino acid 455-692) with V5 tag
activity in enhancing the degradation of the LDLR (LDLR [1]): inactive
